Source: patent US4272437A, “Antibacterial agents, and 4-thio azetidinone intermediates” (priority 1979, dated 1981)
Converted amounts (≈) assume the structure as drawn. Structures can show the parent of a compound that is named as a salt. Where two headings read alike, the source gives them in different places.

Experiments:
[1] = test system: Str. pneumoniae A-9585; assay: MIC, tube dilution, Streptococcus pneumoniae A9585; type: cell-based; details: Streptococcus pneumoniae, A9585, Str. pneumoniae A9585; overnight 37° C., Nutrient Broth; read-out: Minimum Inhibitory Concentration (M.I.C.)
Text: (§1) Representative compounds of the present invention were subjected to in vitro antibiotic screening against a variety of microorganisms.

[2] = test system: Str. pyogenes A-9604; assay: MIC, tube dilution, Streptococcus pyogenes A9604; type: cell-based; details: Streptococcus pyogenes, A9604, Str. pyogenes A9604; overnight 37° C., Nutrient Broth; read-out: Minimum Inhibitory Concentration (M.I.C.)
Text: as §1

[3] = test system: Staph. aureus A-9537; assay: MIC, tube dilution, Staphylococcus aureus A9537; type: cell-based; details: Staphylococcus aureus, A9537, Staph. aureus A9537; overnight 37° C., Nutrient Broth; read-out: Minimum Inhibitory Concentration (M.I.C.)
Text: as §1

[4] = test system: Staph. aureus A-9537 and 50% serum; assay: MIC, tube dilution, Staph. aureus A9537 + 50% serum; type: cell-based, Staphylococcus aureus; details: Staphylococcus aureus, overnight 37° C., read-out: Minimum Inhibitory Concentration (M.I.C.)
Text: as §1

[5] = test system: Staph. aureus (Pen-Res) A-9606; assay: MIC, tube dilution, Staphylococcus aureus A9606 (Pen-Res); type: cell-based; details: Staphylococcus aureus, overnight 37° C.
Text: as §1

[6] = test system: Staph. aureus (Meth-Res) A-15097; assay: MIC, tube dilution, Staphylococcus aureus A15097 (Meth-Res); type: cell-based; details: Staphylococcus aureus, overnight 37° C.
Text: as §1

[7] = test system: Str. faecalis A-20688; assay: MIC, tube dilution, Streptococcus faecalis A20688; type: cell-based; details: Enterococcus faecalis, A20688, Str. faecalis A20688; overnight 37° C.; read-out: Minimum Inhibitory Concentration (M.I.C.)
Text: as §1

[8] = test system: E. coli A-15119; assay: MIC, tube dilution, Escherichia coli A15119; type: cell-based; details: Escherichia coli, A15119, E. coli A15119; overnight 37° C.; read-out: Minimum Inhibitory Concentration (M.I.C.)
Text: as §1

[9] = test system: E. coli A-20341-1; assay: MIC, tube dilution, Escherichia coli A20341-1; type: cell-based
Text: as §1

[10] = test system: K. pneumoniae A-15130; assay: MIC, tube dilution, Klebsiella pneumoniae A15130; type: cell-based; details: Klebsiella pneumoniae, A15130, K. pneumoniae A15130; overnight 37° C.; read-out: Minimum Inhibitory Concentration (M.I.C.)
Text: as §1

[11] = test system: Klebsiella species A20468; assay: MIC, tube dilution, Klebsiella species A20468; type: cell-based; details: Klebsiella species (K. pneumoniae) A20468; overnight 37° C.; read-out: Minimum Inhibitory Concentration (M.I.C.)
Text: as §1

[12] = test system: Pr. mirabilis A-9900; assay: MIC, tube dilution, Proteus mirabilis A9900; type: cell-based; details: Proteus mirabilis, A9900, Proteus mirabilis A9900; overnight 37° C.; read-out: Minimum Inhibitory Concentration (M.I.C.)
Text: as §1

[13] = test system: Pr. morganii A-15153; assay: MIC, tube dilution, Proteus morganii A15153; type: cell-based; details: Morganella morganii, A15153, Proteus morganii A15153; overnight 37° C.; read-out: Minimum Inhibitory Concentration (M.I.C.)
Text: as §1

[14] = test system: Ser. marcescens A-20019; assay: MIC, tube dilution, Serratia marcescens A20019; type: cell-based; details: Serratia marcescens, A20019, Serratia marcescens A20019; overnight 37° C.; read-out: Minimum Inhibitory Concentration (M.I.C.)
Text: as §1

[15] = test system: Ent. cloacae A-9659; assay: MIC, tube dilution, Enterobacter cloacae A9659; type: cell-based; details: Enterobacter cloacae, A9659, Enterobacter cloacae A9659; overnight 37° C.; read-out: Minimum Inhibitory Concentration (M.I.C.)
Text: as §1

[16] = test system: Ent. cloacae A-9656; assay: MIC, tube dilution, Enterobacter cloacae A9656; type: cell-based; details: overnight 37° C., read-out: Minimum Inhibitory Concentration (M.I.C.)
Text: as §1

[17] = test system: Ps. aeruginosa A-9843A; assay: MIC, tube dilution, Pseudomonas aeruginosa A9843A; type: cell-based; details: Pseudomonas aeruginosa, A9843A, read-out: Minimum Inhibitory Concentration (M.I.C.), Pseudomonas aeruginosa A9843A; overnight 37° C.
Text: as §1

[18] = test system: Ps. aeruginosa A-21213; assay: MIC, tube dilution, Pseudomonas aeruginosa A21213; type: cell-based; details: Pseudomonas aeruginosa A21213; overnight 37° C.; read-out: Minimum Inhibitory Concentration (M.I.C.)
Text: as §1

[19] = test system: Proteus rettgeri A21203; assay: MIC, tube dilution, Proteus rettgeri A21203; type: cell-based; details: Providencia rettgeri, overnight 37° C., read-out: Minimum Inhibitory Concentration (M.I.C.)
Text: as §1

[20] = test system: Proteus vulgaris A9555; assay: MIC, tube dilution, Proteus vulgaris (mirabilis) A9555; type: cell-based; details: overnight 37° C., read-out: Minimum Inhibitory Concentration (M.I.C.)
Text: as §1

[21] = read-out: Minimum Inhibitory Concentration (M.I.C.), Staph. aureus A9606 (Pen-Res)
[22] = read-out: Minimum Inhibitory Concentration (M.I.C.), Staph. aureus A15097 (Meth-Res)
[23] = Escherichia coli, A203411; E. coli A20341-1; overnight 37° C.; read-out: Minimum Inhibitory Concentration (M.I.C.)
[24] = Staph. aureus A9606 (Pen-Res), read-out: Minimum Inhibitory Concentration (M.I.C.)
[25] = Staph. aureus A15097 (Meth-Res), read-out: Minimum Inhibitory Concentration (M.I.C.)
[26] = A21203, Proteus rettgeri A21203

With `CSc1nnc(C2=C(C(=O)O)N3C(=O)CC3S2)o1` (centres unmarked) [Example 56, Sodium 3-(5-Methylthio-1,3,4-oxadiazol-2-yl)penem-3-carboxylate] the MIC [1] was 125 µg/mL, the MIC [2] was 125 µg/mL and the MIC [3] was > 125 µg/mL. The MIC [4] was > 63 µg/mL, the MIC [5, 21] was > 125 µg/mL and the MIC [6, 22] was > 125 µg/mL. For the same compound, the MIC [7] was > 125 µg/mL, the MIC [8] was > 125 µg/mL and the MIC [9, 23] was > 125 µg/mL. For the same compound, the MIC [10] was > 125 µg/mL, the MIC [11] was > 125 µg/mL and the MIC [12] was > 125 µg/mL. For the same compound, the MIC [13] was > 125 µg/mL, the MIC [14] was > 125 µg/mL and the MIC [15] was > 125 µg/mL. The MIC ([16]; Enterobacter cloacae A9656) was > 125 µg/mL, the MIC [17] was 125 µg/mL and the MIC [18] was 125 µg/mL. The MIC ([19]; Proteus rettgeri A21203) was > 125 µg/mL and the MIC [20] was > 125 µg/mL.

In the case of `CC1=C(C(=O)O)N2C(=O)[C@@H]([C@@H](C)O)[C@H]2S1` (relative stereo) [Example 34, cis 6-(1'-Hydroxy-1'-ethyl)-2-methylpenem-3-carboxylic Acid, Sodium Salt (isomer "D")], the MIC [1] is reported as 0.25 µg/mL, the MIC [2] is reported as 2 µg/mL and the MIC [3] is reported as 4 µg/mL. The MIC [4] was 63 µg/mL, the MIC [5, 24] was 4 µg/mL and the MIC [6, 25] was 16 µg/mL. It also gave an MIC [7] of 125 µg/mL, an MIC [8] of 4 µg/mL and an MIC ([9]; Escherichia coli, A203411, E. coli A20341-1; overnight 37° C.; read-out: Minimum Inhibitory Concentration (M.I.C.)) of 16 µg/mL. It also gave an MIC [10] of 32 µg/mL, an MIC [11] of 125 µg/mL and an MIC [12] of 16 µg/mL. It also gave an MIC [13] of 32 µg/mL, an MIC [14] of 32 µg/mL and an MIC [15] of 32 µg/mL. For the same compound, the MIC ([16]; Enterobacter cloacae, A9656, Enterobacter cloacae A9656) was 63 µg/mL, the MIC [17] was 125 µg/mL and the MIC [18] was 125 µg/mL. The MIC [19, 26] was 32 µg/mL and the MIC [20] was 16 µg/mL.

With `CC1=C(C(=O)O)N2C(=O)[C@H](C(C)(C)O)[C@H]2S1` (relative stereo) [Example 32, trans 6-(2'-Hydroxy-2'-propyl)-2-methylpenem-3-carboxylic Acid] the MIC [1] was 0.25 µg/mL (≈ 1.03 µM), the MIC [2] was 8 µg/mL (≈ 32.9 µM) and the MIC [3] was 8 µg/mL (≈ 32.9 µM). For the same compound, the MIC [4] was 32 µg/mL, the MIC [5, 24] was 16 µg/mL (≈ 65.8 µM) and the MIC [6, 25] was 63 µg/mL (≈ 259 µM). For the same compound, the MIC [7] was > 125 µg/mL, the MIC [8] was 63 µg/mL (≈ 259 µM) and the MIC [9, 23] was > 125 µg/mL. The MIC [10] was 125 µg/mL (≈ 514 µM), the MIC [11] was > 125 µg/mL and the MIC [12] was 63 µg/mL (≈ 259 µM). For the same compound, the MIC [13] was 125 µg/mL (≈ 514 µM), the MIC [14] was 63 µg/mL (≈ 259 µM) and the MIC [15] was 125 µg/mL (≈ 514 µM). The MIC ([16]; Enterobacter cloacae A9656) was 125 µg/mL (≈ 514 µM), the MIC [17] was 125 µg/mL (≈ 514 µM) and the MIC [18] was 125 µg/mL (≈ 514 µM). For the same compound, the MIC [19, 26] was 63 µg/mL (≈ 259 µM) and the MIC [20] was 125 µg/mL (≈ 514 µM).

In the case of `O=C([O-])C1=C(c2cccnc2)S[C@@H]2CC(=O)N12.[Na+]` [Example 53, Sodium 2-(3-Pyridyl)penem-3-carboxylate], the MIC [1] is reported as 0.06 µg/mL, the MIC [2] is reported as 0.13 µg/mL and the MIC [3] is reported as 1 µg/mL. For the same compound, the MIC [4] was > 63 µg/mL, the MIC [5, 21] was 8 µg/mL and the MIC [6, 22] was 16 µg/mL. It also gave an MIC [7] of 8 µg/mL, an MIC [8] of 2 µg/mL and an MIC [9, 23] of 63 µg/mL. For the same compound, the MIC [10] was 16 µg/mL, the MIC [11] was > 125 µg/mL and the MIC [12] was 2 µg/mL. For the same compound, the MIC [13] was 8 µg/mL, the MIC [14] was 8 µg/mL and the MIC [15] was 16 µg/mL. The MIC ([16]; Enterobacter cloacae A9656) was 32 µg/mL, the MIC [17] was 125 µg/mL and the MIC [18] was 125 µg/mL. It also gave an MIC ([19]; Proteus rettgeri A21203) of 2 µg/mL and an MIC [20] of 2 µg/mL.
